The conditions of data set [1]: cited from earlier work.
For data set [2] the following is noted: cited from earlier work. This is another data set of the same source.
The target of data set [3] is 3A4 (Homo sapiens, UniProt P08684). The data set is described as follows: CYP inhibition in vitro. The format is in vitro ADME.
In data set [4] the test system is CYP3A. The data set is described as follows: CYP3A time-dependent inhibition in vitro. The settings on record: testosterone as the substrate. The format is in vitro ADME.
Data set [5] has as its target T1, 2A6 (Homo sapiens, UniProt P11509).
T1 sequence (P11509 1-494): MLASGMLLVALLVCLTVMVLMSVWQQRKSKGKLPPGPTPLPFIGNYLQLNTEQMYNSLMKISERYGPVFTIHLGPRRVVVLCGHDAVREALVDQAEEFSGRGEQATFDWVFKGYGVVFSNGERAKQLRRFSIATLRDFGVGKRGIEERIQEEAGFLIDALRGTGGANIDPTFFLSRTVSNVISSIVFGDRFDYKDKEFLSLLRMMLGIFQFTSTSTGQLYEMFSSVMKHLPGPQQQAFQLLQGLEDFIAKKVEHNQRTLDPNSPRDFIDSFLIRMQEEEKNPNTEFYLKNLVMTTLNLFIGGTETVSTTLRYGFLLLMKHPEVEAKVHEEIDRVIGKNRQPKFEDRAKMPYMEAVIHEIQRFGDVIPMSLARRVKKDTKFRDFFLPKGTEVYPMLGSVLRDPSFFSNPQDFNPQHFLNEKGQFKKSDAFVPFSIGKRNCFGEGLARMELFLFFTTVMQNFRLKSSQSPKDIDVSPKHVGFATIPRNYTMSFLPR
Nature of the data set: CYP inhibition in vitro. The format is in vitro ADME.

A short description of data set [6]: ECG and heart rate in dogs (safety pharmacology). The format is in vivo.
The nature of data set [7]: oral PK in Sprague-Dawley rats. The format is in vivo.
Data set [8] can be described thus: animal / pre-clinical toxicology studies. The class given is in vivo.
Data set [9] is described as follows: oral PK in CD-1 mice. The class given is in vivo.
Data set [10] deals with CYP2E1, CYP2C9, CYP2C19, and possibly CYP2J2. Nature of the data set: in vitro metabolism by CYP isoforms (other substrates). The class given is in vitro ADME.
For data set [11], the system named is ApoE. Nature of the data set: ApoE gene expression induction in hPBMCs. The format is cell-based, human.
Data set [12] concerns ApoE. Nature of the data set: ApoE gene expression induction in cancer cells. The class given is cell-based.
Data set [13] deals with CYP2B6. Nature of the data set: CYP induction in cryopreserved hepatocytes. The class given is in vitro ADME. As to conditions: 1 concentration in 1/3 donors.
In data set [14] the target is 2D6 (Homo sapiens, UniProt P10635). The data set is described as follows: CYP inhibition in vitro. The class given is in vitro ADME.
The nature of data set [15]: oral PK in male Beagle dogs. The format is in vivo.
The target in data set [16] is 2C9 (Homo sapiens, UniProt P11712). Nature of the data set: CYP inhibition in vitro. The format is in vitro ADME.
In data set [17] the test system is melanoma, glioblastoma, TNBC, ovarian cancer, and lung cancer. Nature of the data set: syngeneic and human xenograft mouse tumor models, primary tumor growth. The format is in vivo. (In general: In xenograft studies the graft and the host belong to different species.)
Data set [18] has as its target CYP3A4 (Homo sapiens, UniProt P08684). Nature of the data set: in vitro metabolism by CYP isoforms. The format is in vitro ADME.
Data set [19] has as its target T2, 1A1 (Homo sapiens, UniProt P04798).
T2 sequence (P04798 1-512): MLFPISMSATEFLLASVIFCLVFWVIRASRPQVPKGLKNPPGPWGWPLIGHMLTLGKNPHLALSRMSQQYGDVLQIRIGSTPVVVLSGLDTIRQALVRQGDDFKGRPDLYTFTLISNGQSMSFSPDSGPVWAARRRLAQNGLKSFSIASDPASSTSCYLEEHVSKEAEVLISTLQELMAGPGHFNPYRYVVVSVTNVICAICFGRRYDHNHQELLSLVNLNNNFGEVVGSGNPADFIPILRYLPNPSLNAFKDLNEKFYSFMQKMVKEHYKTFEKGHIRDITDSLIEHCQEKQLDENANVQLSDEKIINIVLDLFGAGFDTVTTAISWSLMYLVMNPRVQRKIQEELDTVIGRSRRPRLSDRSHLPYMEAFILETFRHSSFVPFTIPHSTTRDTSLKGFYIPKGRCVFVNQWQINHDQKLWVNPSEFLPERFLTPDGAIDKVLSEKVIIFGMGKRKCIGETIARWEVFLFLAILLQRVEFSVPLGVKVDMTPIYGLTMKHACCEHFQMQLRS
Nature of the data set: CYP inhibition in vitro. The format is in vitro ADME.

Data set [20] concerns endothelial recruitment. Nature of the data set: inhibition of endothelial recruitment in vitro. The class given is cell-based.
Data set [21] is described as follows: neurobehavioral FOB and respiratory evaluations in rats. The class given is in vivo.
For data set [22], the system named is CYP1A2. Nature of the data set: CYP induction.
Data set [23] in a line: clinical safety in subjects treated with Compound 1. The class given is in vivo.
Data set [24] has as its target 2E1 (Homo sapiens, UniProt P05181). Nature of the data set: CYP inhibition in vitro. The class given is in vitro ADME.
Data set [25] can be described thus: initial solubility assessment in 12 solvents/solvent mixtures. The class given is physicochemical. As to conditions: amorphous Compound 1, 12 solvents/solvent mixtures. How it is done:
An initial solubility assessment was conducted in 12 solvents/solvent mixtures using amorphous Compound 1. […] Salt screening by cooling, anti-solvent addition, maturation, liquid assisted grinding, neat grinding and evaporation were all investigated. Gums isolated were subjected to heat/cool maturation cycles (room temperature/50° C.), sonication, prolonged storage under vacuum, prolonged storage at 40° C./75% RH, trituration with anti-solvent and liquid assisted grinding (LAG) with water. From extensive salt screening, eight hits were obtained. Amorphous hits with a high glass transition temperature (Tg) were identified from zinc chloride, naphthalene-2-sulfonic acid, 1,5-naphthalene disulfonic acid, and ethane sulfonic acid. One crystalline hit was identified from ethane sulfonic acid. Poorly crystalline material was isolated from calcium hydroxide, magnesium hydroxide and aluminum hydroxide.

The target in data set [26] is human ether-à-go-go-related gene (hERG) channel (Homo sapiens, UniProt Q12809). The data set is described as follows: in vitro hERG assay. The format is cell-based.
Data set [27] concerns the target P-glucoprotein (P-gp) (Homo sapiens, UniProt P08183). Nature of the data set: efflux transporter inhibition in vitro. The format is in vitro ADME.
In data set [28] the test system is CYP3A. Nature of the data set: CYP induction in cryopreserved hepatocytes. The format is in vitro ADME. As to conditions: primary cultures of cryopreserved hepatocytes (2 donors).
Data set [29] addresses 2C19 (Homo sapiens, UniProt P33261). Nature of the data set: CYP inhibition in vitro. The class given is in vitro ADME.
The nature of data set [30]: oral PK in Cynomolgus monkeys. The format is in vivo.
Data set [31] in a line: stability of salts of Compound 1 during processing and formulation. The settings on record: for stability of strong acid salts: readily undergo apparent esterification with alcoholic solvents; for stability towards excipients and/or components of a formulation: salts react with excipients and/or components of a formulation.
Where [32] appears, read: Table 6, counterion sources, second set Study 3.
Setting [33] is: Table 5, counterion sources, first set Study 3.

Like-named read-outs stand apart in the source and are kept apart here.

2C9, sequence (P11712 whole entry): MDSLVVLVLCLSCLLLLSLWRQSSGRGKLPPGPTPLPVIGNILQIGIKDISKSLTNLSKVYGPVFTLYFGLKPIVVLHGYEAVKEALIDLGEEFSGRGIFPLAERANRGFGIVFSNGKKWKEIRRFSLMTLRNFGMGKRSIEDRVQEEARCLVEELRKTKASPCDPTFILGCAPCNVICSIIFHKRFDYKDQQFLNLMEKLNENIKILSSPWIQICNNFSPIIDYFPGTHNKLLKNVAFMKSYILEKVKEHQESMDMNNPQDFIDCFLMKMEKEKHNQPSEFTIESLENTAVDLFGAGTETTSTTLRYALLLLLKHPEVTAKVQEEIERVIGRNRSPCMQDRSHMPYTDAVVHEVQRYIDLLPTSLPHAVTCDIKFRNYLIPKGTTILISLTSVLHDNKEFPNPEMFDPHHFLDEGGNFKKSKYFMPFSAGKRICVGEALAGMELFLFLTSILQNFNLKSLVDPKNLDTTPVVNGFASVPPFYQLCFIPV
human ether-à-go-go-related gene (hERG) channel, sequence (Q12809 whole entry): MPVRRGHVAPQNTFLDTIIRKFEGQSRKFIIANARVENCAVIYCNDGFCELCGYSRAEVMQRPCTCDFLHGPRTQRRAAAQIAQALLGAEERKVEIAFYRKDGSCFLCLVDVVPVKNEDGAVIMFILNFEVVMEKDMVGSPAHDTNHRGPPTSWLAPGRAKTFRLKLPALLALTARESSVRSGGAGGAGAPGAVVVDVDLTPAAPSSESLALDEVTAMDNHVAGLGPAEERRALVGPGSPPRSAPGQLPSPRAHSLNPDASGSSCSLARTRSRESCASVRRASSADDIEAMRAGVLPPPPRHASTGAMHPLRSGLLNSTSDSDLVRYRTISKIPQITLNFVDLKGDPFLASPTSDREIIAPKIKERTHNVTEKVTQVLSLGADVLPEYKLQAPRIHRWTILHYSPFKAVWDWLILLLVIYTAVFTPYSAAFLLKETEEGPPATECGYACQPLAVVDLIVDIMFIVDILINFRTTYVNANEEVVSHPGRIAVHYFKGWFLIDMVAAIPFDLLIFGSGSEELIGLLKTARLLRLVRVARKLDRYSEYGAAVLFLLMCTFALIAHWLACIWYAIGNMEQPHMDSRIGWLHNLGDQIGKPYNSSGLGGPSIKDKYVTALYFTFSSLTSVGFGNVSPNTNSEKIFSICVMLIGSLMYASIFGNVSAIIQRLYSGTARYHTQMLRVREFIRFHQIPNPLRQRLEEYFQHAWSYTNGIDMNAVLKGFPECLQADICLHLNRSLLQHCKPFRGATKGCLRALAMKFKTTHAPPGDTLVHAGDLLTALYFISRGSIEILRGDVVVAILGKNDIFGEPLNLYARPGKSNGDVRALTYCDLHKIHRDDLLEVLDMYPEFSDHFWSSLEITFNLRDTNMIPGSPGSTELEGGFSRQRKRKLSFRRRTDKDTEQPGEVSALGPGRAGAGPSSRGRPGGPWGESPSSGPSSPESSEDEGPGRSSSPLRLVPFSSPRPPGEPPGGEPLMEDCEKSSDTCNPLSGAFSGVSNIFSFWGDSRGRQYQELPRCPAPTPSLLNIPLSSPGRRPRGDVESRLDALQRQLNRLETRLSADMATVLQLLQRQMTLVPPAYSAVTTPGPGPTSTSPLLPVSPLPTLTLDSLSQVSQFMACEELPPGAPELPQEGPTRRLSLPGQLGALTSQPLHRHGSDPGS
P-glucoprotein (P-gp), sequence (P08183 whole entry): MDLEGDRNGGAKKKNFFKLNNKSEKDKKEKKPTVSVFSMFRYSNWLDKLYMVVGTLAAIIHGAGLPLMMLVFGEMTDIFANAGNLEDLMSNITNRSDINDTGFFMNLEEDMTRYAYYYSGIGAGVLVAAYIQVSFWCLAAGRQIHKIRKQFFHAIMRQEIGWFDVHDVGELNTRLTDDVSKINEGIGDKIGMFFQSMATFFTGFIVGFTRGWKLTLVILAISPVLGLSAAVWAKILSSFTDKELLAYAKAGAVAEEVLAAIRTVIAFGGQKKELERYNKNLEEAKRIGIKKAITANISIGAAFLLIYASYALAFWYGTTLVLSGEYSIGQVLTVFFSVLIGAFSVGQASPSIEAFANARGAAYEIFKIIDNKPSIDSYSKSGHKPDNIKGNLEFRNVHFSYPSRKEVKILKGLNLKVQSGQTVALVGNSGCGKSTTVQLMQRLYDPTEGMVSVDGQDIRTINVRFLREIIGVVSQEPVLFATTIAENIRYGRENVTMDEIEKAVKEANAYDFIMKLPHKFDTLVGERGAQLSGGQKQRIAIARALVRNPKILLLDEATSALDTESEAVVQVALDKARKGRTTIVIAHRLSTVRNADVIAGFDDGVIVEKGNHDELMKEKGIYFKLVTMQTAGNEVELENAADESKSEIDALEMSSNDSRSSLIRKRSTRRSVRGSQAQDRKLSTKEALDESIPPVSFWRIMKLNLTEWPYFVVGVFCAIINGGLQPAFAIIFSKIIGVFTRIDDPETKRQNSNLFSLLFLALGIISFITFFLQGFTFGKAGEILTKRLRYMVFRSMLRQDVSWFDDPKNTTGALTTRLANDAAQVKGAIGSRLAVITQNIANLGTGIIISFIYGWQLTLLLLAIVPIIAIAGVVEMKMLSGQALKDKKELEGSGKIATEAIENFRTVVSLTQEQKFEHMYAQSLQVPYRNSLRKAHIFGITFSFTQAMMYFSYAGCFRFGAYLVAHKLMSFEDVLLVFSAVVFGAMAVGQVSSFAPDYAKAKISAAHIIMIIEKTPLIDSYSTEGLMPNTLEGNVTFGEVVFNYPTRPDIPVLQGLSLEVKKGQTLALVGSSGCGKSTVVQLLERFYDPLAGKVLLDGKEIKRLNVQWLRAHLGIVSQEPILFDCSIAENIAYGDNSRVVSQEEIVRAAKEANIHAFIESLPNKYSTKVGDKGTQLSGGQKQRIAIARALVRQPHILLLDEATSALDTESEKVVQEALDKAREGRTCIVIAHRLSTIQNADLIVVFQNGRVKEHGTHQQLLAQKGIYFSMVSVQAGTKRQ
2C19, sequence (P33261 whole entry): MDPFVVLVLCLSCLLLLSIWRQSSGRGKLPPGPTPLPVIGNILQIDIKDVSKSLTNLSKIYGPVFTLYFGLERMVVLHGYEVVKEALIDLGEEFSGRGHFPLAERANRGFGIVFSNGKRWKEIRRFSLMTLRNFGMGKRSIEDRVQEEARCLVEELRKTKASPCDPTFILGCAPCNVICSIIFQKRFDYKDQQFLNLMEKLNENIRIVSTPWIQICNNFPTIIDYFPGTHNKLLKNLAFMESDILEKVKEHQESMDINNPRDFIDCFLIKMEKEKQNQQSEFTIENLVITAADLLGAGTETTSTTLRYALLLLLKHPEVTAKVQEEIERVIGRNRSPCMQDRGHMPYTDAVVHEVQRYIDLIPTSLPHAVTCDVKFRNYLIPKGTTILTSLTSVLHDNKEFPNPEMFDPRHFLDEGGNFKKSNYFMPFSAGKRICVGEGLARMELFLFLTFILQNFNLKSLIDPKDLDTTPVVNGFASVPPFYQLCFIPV
3A4, sequence (P08684 whole entry): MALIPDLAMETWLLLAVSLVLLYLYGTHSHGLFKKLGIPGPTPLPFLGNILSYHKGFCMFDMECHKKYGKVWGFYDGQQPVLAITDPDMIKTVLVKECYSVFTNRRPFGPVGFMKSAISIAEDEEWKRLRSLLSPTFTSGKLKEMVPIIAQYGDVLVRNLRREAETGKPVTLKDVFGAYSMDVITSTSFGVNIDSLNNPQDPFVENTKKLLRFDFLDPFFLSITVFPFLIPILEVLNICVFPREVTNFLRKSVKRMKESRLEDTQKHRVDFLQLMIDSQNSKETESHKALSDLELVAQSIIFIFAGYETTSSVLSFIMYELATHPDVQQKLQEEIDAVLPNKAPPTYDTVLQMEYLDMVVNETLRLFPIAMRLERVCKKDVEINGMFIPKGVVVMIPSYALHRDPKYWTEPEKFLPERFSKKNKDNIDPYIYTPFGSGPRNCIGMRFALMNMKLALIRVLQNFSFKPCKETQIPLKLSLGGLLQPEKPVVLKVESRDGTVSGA
CYP3A4, sequence (P08684 whole entry, canonical isoform): as the sequence (P08684 whole entry) above
2D6, sequence (P10635 whole entry): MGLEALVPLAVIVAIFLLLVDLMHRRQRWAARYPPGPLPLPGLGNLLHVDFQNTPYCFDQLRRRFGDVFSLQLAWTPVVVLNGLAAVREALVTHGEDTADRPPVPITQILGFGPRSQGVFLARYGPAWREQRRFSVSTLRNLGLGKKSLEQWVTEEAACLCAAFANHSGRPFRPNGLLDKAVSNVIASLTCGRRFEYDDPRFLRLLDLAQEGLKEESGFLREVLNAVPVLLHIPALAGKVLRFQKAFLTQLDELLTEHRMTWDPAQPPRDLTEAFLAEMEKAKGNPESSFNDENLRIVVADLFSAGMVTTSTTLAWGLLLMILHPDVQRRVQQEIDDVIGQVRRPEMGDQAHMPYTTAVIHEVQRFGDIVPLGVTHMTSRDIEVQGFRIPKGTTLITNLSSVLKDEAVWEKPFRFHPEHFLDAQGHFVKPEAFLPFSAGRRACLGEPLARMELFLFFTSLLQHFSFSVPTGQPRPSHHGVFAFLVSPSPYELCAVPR
2E1, sequence (P05181 whole entry): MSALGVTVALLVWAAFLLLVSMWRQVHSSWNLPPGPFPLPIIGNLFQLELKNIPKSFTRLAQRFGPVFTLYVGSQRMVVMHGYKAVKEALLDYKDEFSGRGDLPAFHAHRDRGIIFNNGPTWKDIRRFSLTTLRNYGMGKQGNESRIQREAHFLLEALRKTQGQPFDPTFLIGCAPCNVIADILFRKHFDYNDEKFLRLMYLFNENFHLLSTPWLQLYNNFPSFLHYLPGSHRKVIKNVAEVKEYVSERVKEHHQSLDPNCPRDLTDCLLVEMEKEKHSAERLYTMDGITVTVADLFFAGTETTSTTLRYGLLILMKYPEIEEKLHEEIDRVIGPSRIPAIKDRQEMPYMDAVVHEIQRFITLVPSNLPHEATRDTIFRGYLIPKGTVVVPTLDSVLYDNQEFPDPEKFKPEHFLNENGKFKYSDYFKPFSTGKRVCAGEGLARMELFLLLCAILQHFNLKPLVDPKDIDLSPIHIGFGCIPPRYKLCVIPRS

With `OCCN1CCCC1` [1-(2-Hydroxyethyl)-pyrrolidine], in data set [1] (setting [32]), the pKa1 was 9.4.
Consider `[NH2][Pt]1([NH2])[O]C(=O)C2(CCC2)C(=O)[O]1` [Carboplatin, platinum, diamine[1,1-cyclobutanedicarboxylato(2-)-O,O′]-(SP-4-2)], for which the “pH of a 1% solution” value in [2] (1% solution) is listed as 5-7. In addition, the “solubility in ethanol, acetone, and dimethylacetamide” value in data set [2] (ethanol, acetone, dimethylacetamide) is recorded as “virtually insoluble”. Further, the solubility in water entry in data set [2] (water) was “approximately 14 mg/mL”.
As for `C[N+](C)(C)CCO` [Choline], the pKa1 in data set [1] (setting [33]) was over 11.0.
Broadly, the EC50 is the concentration giving half of the maximal effect. Low readings indicate an effect from little substance, high ones a need for much substance. Consider `C[C@H](CCOc1cccc(CC(=O)O)c1)N(Cc1cccc(C(F)(F)F)c1Cl)CC(c1ccccc1)c1ccccc1` [Compound 1, 2-[3-[(3R)-3-[[2-chloro-3-(trifluoromethyl)phenyl]methyl-(2,2-diphenylethyl)amino]butoxy]phenyl]acetic acid], for which the “inhibition of 3A4” value in data set [3] is reported as “very weakly inhibited”. In [4], the “CYP3A time-dependent inhibition (TDI)” value is reported as “time-dependent inhibition (TDI) was demonstrated”. Moreover, the “inhibition of 2A6” value in data set [5] is on record as “very weakly inhibited”. Further, in data set [6], the “effects on qualitative ECG parameters (PR or QTc intervals or QRS duration)” value is “no Compound 1-related effects”. Moreover, the mean heart rate entry in data set [6] (Day 1 post-dose interval, significant in females at 150 (stepped down to 100) mg/kg/day) is given as “dose related decrease”. Besides, the “mean apparent oral t %” value in data set [7] (female rats) is 6.5 h; in data set [15], 5 to 6.7 h. For the same compound, the “clearance, females versus males” value in [7] (rats) is “cleared at a lower rate in female rats compared to males”. For the same compound, the “potential risks based on animal toxicology studies” value in [8] (animal toxicology studies) is “elevations in serum cholesterol and TG, neutropenia/leukopenia, nausea and/or vomiting, elevations in liver enzymes, development or worsening of cataracts, cardiac rhythm disturbances and/or reduced cardiac function, harderian gland adenocarcinoma, and/or generalized edema”. Moreover, the “liver function in pre-clinical toxicity studies” value in [8] (pre-clinical toxicity studies) was “Liver function abnormalities have been observed”. In addition, the “food effect: plasma concentrations fed state” value in [9] was over 2 fold. In addition, the “substrate for other CYP isoforms” value in data set [10] is reported as “also a substrate”. Also, the EC50 is 271 nM in data set [11] (Homo sapiens) and 385 nM in [12]. Besides, the figures for the “induction of ApoE gene expression” value in data set [11] (compared to control cells) and in [12] (compared to control cells) were “up to 40 fold” and 3 fold, respectively. The “induction of CYP2B6” value in data set [13] is recorded as over 2 fold. In addition, the “inhibition of 2D6” value in data set [14] was “very weakly inhibited”. Also, the “inhibition of 2C9” value in data set [16] was “very weakly inhibited”. Moreover, in data set [17] (25-40 mg/kg/day PO), the “exposures at minimum efficacious doses” value is listed as 10,000-50,000 ng-h/mL. The minimum efficacious doses in data set [17] (administered orally (PO), tumor growth studies) was 25 to 40 mg/kg/day. The “metabolism by CYP3A4” value in data set [18] is “metabolized predominantly”. For the same compound, the “inhibition of 1A1” value in data set [19] is “very weakly inhibited”. Also, in data set [20], the “inhibition of endothelial recruitment” value is about 50%. The “neurobehavioral FOB or respiratory evaluations” value in data set [21] is on record as “no adverse effects”. Moreover, the “induction of CYP1A2” value in data set [22] is given as “did not induce”. Besides, the “dose limiting toxicity on single agent therapy” value in [23] (Compound 1 single agent therapy) is “DLT of Grade 4 neutropenia”. For the same compound, in data set [23] (subjects treated with Compound 1), the “hyperlipidemia in treated subjects” value is recorded as “hyperlipidemia has been observed”. For the same compound, the “inhibition of 2E1” value in data set [24] was “very weakly inhibited”. Further, the “solubility in solvents/solvent mixtures” value in data set [25] was “Dissolution was observed in most of the samples”. Moreover, the hERG channel conductance entry in data set [26] is “significant increase, but not inhibition”. Besides, the “inhibition of P-gp” value in data set [27] is recorded as “does not inhibit”. Further, the “induction of CYP3A” value in data set [28] is recorded as “Induction of CYP3A by Compound 1 was demonstrated”. For the same compound, in [29], the “inhibition of 2C19” value is given as “very weakly inhibited”. The “Mean oral t %” value in [30] was in the range of 5.5 to 8 h.
Take `OCCNCCO` [Diethanolamine]: the pKa1 in data set [1] (setting [33]) is 9.5.
Take `O=S(=O)(O)CCS(=O)(=O)O` [Ethane-1,2-disulfonic acid]: the pKa1 in data set [1] (setting [33]) is given as −2.1.
As to `CCS(=O)(=O)O` [Ethanesulfonic acid], the pKa1 in data set [1] (setting [33]) is reported as −1.6.
Take `O=C(O)CNC(=O)c1ccccc1` [Hippuric acid]: the pKa1 in [1] (setting [32]) was 3.6.
For `N[C@@H](Cc1c[nH]cn1)C(=O)O` [Histidine], the pKa1 in data set [1] (setting [32]) was 9.2.
Take `N=C(N)NCCC[C@H](N)C(=O)O` [L-Arginine]: in data set [1] (setting [33]), the pKa1 was 9.0.
As to `NCCCC[C@H](N)C(=O)O` [L-Lysine], the pKa1 in [1] (setting [32]) is reported as 9.2.
Regarding `O=S(=O)(O)c1ccc2ccccc2c1` [Naphthalene-2-sulfonic acid], the pKa1 in [1] (setting [33]) is reported as 0.17.
Turning to `O=[N+]([O-])O` [Nitric acid], the pKa1 in data set [1] (setting [33]) is given as −1.3.
Regarding `O=C(O)c1cc2ccccc2c(Cc2c(O)c(C(=O)O)cc3ccccc23)c1O` [Pamoic acid], the pKa1 in data set [1] (setting [32]) is reported as 2.5.
As to `O=S(=O)([O-])CCS(=O)(=O)[O-].[Na+].[Na+]` [Sodium edisylate], the pKa1 in [1] (setting [32]) is recorded as −2.1.
As to `O=S(=O)([O-])CCO.[Na+]` [Sodium isethionate], the pKa1 in data set [1] (setting [32]) was 1.7.
On to `N#CS` [Thiocyanic acid], for which, in data set [1] (setting [32]), the pKa1 is −1.3.
Regarding `CS(=O)(=O)O` [methanesulfonic acid], in data set [31], the “stability of strong acid salts” value was “prone to instability” and the “stability towards excipients and/or components of a formulation” value is reported as “unstable”.
The corresponding values for H2SO4 [Compound H2SO4] are “prone to instability” and “unstable”.

(Values after US11878956B2, “Metal salts and uses thereof” (Inspirna, Inc., priority 2019, dated 2024).)
